ChEMBL document CHEMBL1201862, “PubChem BioAssay data set” (2004)
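Five compound concentrations were applied to cells in 96-well plates for 48 hours; endpoints were derived by simple linear interpolation of the resulting dose-response curve. At the GI50, growth is halved.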 Calls of active or inactive are those of the source. Rule as the data show it: active = GI50 up to about 1.1 µM and inactive = higher.

Columns and labels:
Experiment in all cases: growth of human tumour cells (NCI), 48 h
A498 = test system: A498
ACHN = test system: ACHN
CCRF-CEM = test system: CCRF-CEM
DU-145 = test system: DU-145
EKVX = test system: EKVX
HOP-92 = test system: HOP-92
HT-29 = test system: HT-29
Hs-578T = test system: Hs-578T
Malme-3M = test system: Malme-3M
NCI-H460 = test system: NCI-H460
OVCAR-3 = test system: OVCAR-3
OVCAR-4 = test system: OVCAR-4
OVCAR-5 = test system: OVCAR-5
RXF 393 = test system: RXF 393
SF-268 = test system: SF-268
SN12C = test system: SN12C
SNB-19 = test system: SNB-19
SNB-75 = test system: SNB-75
U-251 = test system: U-251
UACC-62 = test system: UACC-62

**Q.** For `CN(C)CCCNc1ccc2nnn3c4ccc([N+](=O)[O-])cc4c(=O)c1c23`, which GI50 (A498) is on record?
**A.** 2.26 µM (inactive)

**Q.** And the GI50 (ACHN)?
**A.** 0.542 µM (active)

**Q.** What about the GI50 (CCRF-CEM) of the same compound?
**A.** 0.785 µM (active)

**Q.** What about the GI50 (DU-145) of the same compound?
**A.** 1.71 µM (inactive)

**Q.** What about the GI50 (EKVX) of the same compound?
**A.** 2.56 µM (inactive)

**Q.** What about the GI50 (HOP-92) of the same compound?
**A.** 1.57 µM (inactive)

**Q.** And the GI50 (HT-29)?
**A.** 0.55 µM (active)

**Q.** What about the GI50 (Hs-578T) of the same compound?
**A.** 3.81 µM (inactive)

**Q.** What about the GI50 (Malme-3M) of the same compound?
**A.** 3.56 µM (inactive)

**Q.** And the GI50 (NCI-H460)?
**A.** 0.313 µM (active)

**Q.** What about the GI50 (OVCAR-3) of the same compound?
**A.** 2.55 µM (inactive)

**Q.** And the GI50 (OVCAR-4)?
**A.** 1.02 µM (active)

**Q.** What about the GI50 (OVCAR-5) of the same compound?
**A.** 1.99 µM (inactive)

**Q.** What about the GI50 (RXF 393) of the same compound?
**A.** 1.12 µM (active)

**Q.** What about the GI50 (SF-268) of the same compound?
**A.** 1.14 µM (inactive)

**Q.** And the GI50 (SN12C)?
**A.** 0.695 µM (active)

**Q.** What about the GI50 (SNB-19) of the same compound?
**A.** 2.73 µM (inactive)

**Q.** What about the GI50 (SNB-75) of the same compound?
**A.** 1.51 µM (inactive)

**Q.** What about the GI50 (U-251) of the same compound?
**A.** 0.738 µM (active)

**Q.** And the GI50 (UACC-62)?
**A.** 4.33 µM (inactive)

**Q.** Which results are given for `S=C(N/N=C(/c1ccccc1)c1ccccn1)N1CCCCCC1`?
**A.** GI50 (A498): 0.269 µM (active); GI50 (ACHN): < 0.0421 µM (active); GI50 (CCRF-CEM): < 0.0133 µM (active); GI50 (DU-145): 0.369 µM (active); GI50 (EKVX): < 0.0329 µM (active); GI50 (HOP-92): 0.55 µM (active); GI50 (HT-29): < 0.0141 µM (active); GI50 (Hs-578T): 0.3 µM (active); GI50 (Malme-3M): < 0.0295 µM (active); GI50 (NCI-H460): < 0.0283 µM (active); GI50 (OVCAR-3): 0.01 µM (active); GI50 (OVCAR-4): 0.127 µM (active); GI50 (OVCAR-5): 0.0764 µM (active); GI50 (RXF 393): 0.67 µM (active); GI50 (SF-268): < 0.0391 µM (active); GI50 (SNB-19): 0.308 µM (active); GI50 (SNB-75): 0.036 µM (active); GI50 (U-251): < 0.0252 µM (active); GI50 (UACC-62): 0.0476 µM (active)

**Q.** `COc1cc2cc(C(=O)N3CC(CCl)c4c3cc(NC(=O)OCc3ccc([N+](=O)[O-])cc3)c3ccccc43)[nH]c2c(OC)c1OC` (configuration not stated) was tested. Which GI50 (A498) did it give?
**A.** < 0.01 µM (active)

**Q.** What about the GI50 (ACHN) of the same compound?
**A.** < 0.0116 µM (active)

**Q.** And the GI50 (CCRF-CEM)?
**A.** 8.91 µM (inactive)

**Q.** What about the GI50 (DU-145) of the same compound?
**A.** 0.108 µM (active)

**Q.** And the GI50 (EKVX)?
**A.** 43 µM (inactive)

**Q.** What about the GI50 (HOP-92) of the same compound?
**A.** > 45.7 µM (inactive)

**Q.** What about the GI50 (HT-29) of the same compound?
**A.** > 54.2 µM (inactive)

**Q.** And the GI50 (Hs-578T)?
**A.** > 53.1 µM (inactive)

**Q.** What about the GI50 (Malme-3M) of the same compound?
**A.** > 100 µM (inactive)

**Q.** What about the GI50 (NCI-H460) of the same compound?
**A.** < 0.0173 µM (active)

**Q.** And the GI50 (OVCAR-3)?
**A.** > 100 µM (inactive)

**Q.** And the GI50 (OVCAR-4)?
**A.** > 100 µM (inactive)

**Q.** And the GI50 (OVCAR-5)?
**A.** 29.4 µM (inactive)

**Q.** And the GI50 (RXF 393)?
**A.** 14 µM (inactive)

**Q.** What about the GI50 (SF-268) of the same compound?
**A.** 24.6 µM (inactive)

**Q.** What about the GI50 (SN12C) of the same compound?
**A.** > 100 µM (inactive)

**Q.** And the GI50 (SNB-19)?
**A.** > 100 µM (inactive)

**Q.** And the GI50 (SNB-75)?
**A.** 20.5 µM (inactive)

**Q.** And the GI50 (U-251)?
**A.** 38.5 µM (inactive)

**Q.** What about the GI50 (UACC-62) of the same compound?
**A.** > 38 µM (inactive)

**Q.** What does the source list for `COc1cc(C(=O)C2C(=O)c3ccccc3C2C2(O)c3ccccc3CC2C(O)c2cc(OC)c(OC)c(OC)c2)cc(OC)c1OC` (configuration not stated)?
**A.** GI50 (A498): > 100 µM (inactive); GI50 (ACHN): > 100 µM (inactive); GI50 (DU-145): > 100 µM (inactive); GI50 (EKVX): > 100 µM (inactive); GI50 (HOP-92): 51.2 µM (inactive); GI50 (HT-29): > 100 µM (inactive); GI50 (Hs-578T): > 100 µM (inactive); GI50 (Malme-3M): > 100 µM (inactive); GI50 (NCI-H460): > 100 µM (inactive); GI50 (OVCAR-3): > 100 µM (inactive); GI50 (OVCAR-4): > 100 µM (inactive); GI50 (OVCAR-5): > 100 µM (inactive); GI50 (RXF 393): > 100 µM (inactive); GI50 (SF-268): 91.4 µM (inactive); GI50 (SN12C): > 100 µM (inactive); GI50 (SNB-19): > 100 µM (inactive); GI50 (SNB-75): 20.3 µM (inactive); GI50 (U-251): 41.3 µM (inactive); GI50 (UACC-62): > 100 µM (inactive)

**Q.** With `CSC(=S)N/N=C(\C)c1cccc(C)n1` as the compound, how does the GI50 (A498) read?
**A.** 2.21 µM (inactive)

**Q.** And the GI50 (ACHN)?
**A.** 0.265 µM (active)

**Q.** And the GI50 (CCRF-CEM)?
**A.** 0.0124 µM (active)

**Q.** What about the GI50 (DU-145) of the same compound?
**A.** 0.845 µM (active)

**Q.** And the GI50 (EKVX)?
**A.** 1.16 µM (inactive)

**Q.** And the GI50 (HOP-92)?
**A.** 1.1 µM (active)

**Q.** And the GI50 (HT-29)?
**A.** 0.133 µM (active)

**Q.** And the GI50 (Hs-578T)?
**A.** 6.14 µM (inactive)

**Q.** What about the GI50 (Malme-3M) of the same compound?
**A.** 0.809 µM (active)

**Q.** And the GI50 (NCI-H460)?
**A.** 0.456 µM (active)

**Q.** What about the GI50 (OVCAR-3) of the same compound?
**A.** 0.0568 µM (active)

**Q.** And the GI50 (OVCAR-4)?
**A.** 0.497 µM (active)

**Q.** And the GI50 (OVCAR-5)?
**A.** 5.77 µM (inactive)

**Q.** What about the GI50 (RXF 393) of the same compound?
**A.** 0.998 µM (active)

**Q.** What about the GI50 (SF-268) of the same compound?
**A.** 0.708 µM (active)

**Q.** What about the GI50 (SN12C) of the same compound?
**A.** 1.28 µM (inactive)

**Q.** What about the GI50 (SNB-19) of the same compound?
**A.** 4.04 µM (inactive)

**Q.** What about the GI50 (SNB-75) of the same compound?
**A.** 1.86 µM (inactive)

**Q.** And the GI50 (U-251)?
**A.** 0.776 µM (active)

**Q.** And the GI50 (UACC-62)?
**A.** 0.472 µM (active)

**Q.** `COc1cc(/C=C2\C[C@H]3[C@@H]4CC=C5C[C@@H](O)CC[C@]5(C)[C@H]4CC[C@]3(C)[C@H]2O)cc(OC)c1OC` was tested. Which GI50 (A498) did it give?
**A.** 20.9 µM (inactive)

**Q.** What about the GI50 (ACHN) of the same compound?
**A.** 6.27 µM (inactive)

**Q.** And the GI50 (DU-145)?
**A.** 18.3 µM (inactive)

**Q.** And the GI50 (EKVX)?
**A.** 34 µM (inactive)

**Q.** What about the GI50 (HOP-92) of the same compound?
**A.** 12.7 µM (inactive)

**Q.** And the GI50 (HT-29)?
**A.** 11.1 µM (inactive)

**Q.** And the GI50 (Hs-578T)?
**A.** 19.9 µM (inactive)

**Q.** What about the GI50 (Malme-3M) of the same compound?
**A.** 33.1 µM (inactive)

**Q.** And the GI50 (NCI-H460)?
**A.** 12 µM (inactive)

**Q.** What about the GI50 (OVCAR-3) of the same compound?
**A.** 12.2 µM (inactive)

**Q.** And the GI50 (OVCAR-4)?
**A.** 7.45 µM (inactive)

**Q.** And the GI50 (OVCAR-5)?
**A.** 26.3 µM (inactive)

**Q.** And the GI50 (RXF 393)?
**A.** 5.58 µM (inactive)

**Q.** And the GI50 (SF-268)?
**A.** 54.8 µM (inactive)

**Q.** And the GI50 (SN12C)?
**A.** 38.3 µM (inactive)

**Q.** And the GI50 (SNB-19)?
**A.** 50.1 µM (inactive)

**Q.** And the GI50 (SNB-75)?
**A.** 9.06 µM (inactive)

**Q.** And the GI50 (U-251)?
**A.** 11 µM (inactive)

**Q.** And the GI50 (UACC-62)?
**A.** 10.3 µM (inactive)

**Q.** How did the GI50 (A498) turn out when `c1ccc2cc(-c3cc(-c4cc(-c5ccc6ccccc6c5)on4)no3)ccc2c1` was run?
**A.** > 100 µM (inactive)

**Q.** And the GI50 (ACHN)?
**A.** > 100 µM (inactive)

**Q.** What about the GI50 (CCRF-CEM) of the same compound?
**A.** 13.6 µM (inactive)

**Q.** And the GI50 (DU-145)?
**A.** > 100 µM (inactive)

**Q.** What about the GI50 (EKVX) of the same compound?
**A.** 11.7 µM (inactive)

**Q.** And the GI50 (HOP-92)?
**A.** > 100 µM (inactive)

**Q.** What about the GI50 (HT-29) of the same compound?
**A.** > 100 µM (inactive)

**Q.** What about the GI50 (Hs-578T) of the same compound?
**A.** 53.6 µM (inactive)

**Q.** What about the GI50 (Malme-3M) of the same compound?
**A.** > 100 µM (inactive)

**Q.** And the GI50 (NCI-H460)?
**A.** > 100 µM (inactive)

**Q.** And the GI50 (OVCAR-3)?
**A.** > 100 µM (inactive)

**Q.** What about the GI50 (OVCAR-4) of the same compound?
**A.** > 100 µM (inactive)

**Q.** And the GI50 (OVCAR-5)?
**A.** > 100 µM (inactive)

**Q.** What about the GI50 (RXF 393) of the same compound?
**A.** > 100 µM (inactive)

**Q.** And the GI50 (SF-268)?
**A.** > 100 µM (inactive)

**Q.** And the GI50 (SN12C)?
**A.** > 100 µM (inactive)

**Q.** And the GI50 (SNB-19)?
**A.** 15 µM (inactive)

**Q.** And the GI50 (SNB-75)?
**A.** 64.7 µM (inactive)

**Q.** What about the GI50 (U-251) of the same compound?
**A.** > 100 µM (inactive)

**Q.** And the GI50 (UACC-62)?
**A.** > 100 µM (inactive)
